Relative viability data for 1 cell line are collected here from the supplement of paper PMC10307832.

What all share (test): relative viability (nuclei count vs DMSO), 5 days (fraction); higher = more cells survive
Compound in one assay: CC(C)C[C@H](NC(=O)[C@H](Cc1ccccc1)NC(=O)c1cnccn1)B(O)O [Bortezomib]
In a few lines: (§1)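 Five library-drug doses spaced by √10 were pinned onto vehicle-anchored 1536-well plates of lung cancer cell lines that had been kept overnight at 37 °C. Cells went 5 days without medium change, then were fixed, permeabilised and Hoechst-stained together, imaged at 4× and counted by MetaXpress. Viability is the ratio of treated-well to vehicle-well nuclei, taken as a median over plates. Plates required control CV below 25% and at least one doubling.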

Compound in assay [1]: CC1=CC(=NN1)NC2=CC(=NC(=N2)/C=C/C3=CC=CC=C3)N4CCN(CC4)C
In a few lines:
as §1

Compound in the next assay: COC1=CC(c2cc3ccccc3[nH]2)=N/C1=C\c1[nH]c(C)cc1C [Obatoclax]
In a few lines:
as §1

For NCI-H650, the relative viability with Bortezomib (0.000632 µM) came to 0.97; with Bortezomib (0.002 µM), 1.03; with Bortezomib (0.002 µM, anchor plate), 0.902; with Bortezomib (0.006325 µM) it was 0.689; in the assay with Bortezomib (0.02 µM), 0.281; in assay [1] (0.08 µM), 0.701. The relative viability in assay [1] (0.253 µM) worked out at 1.15; in assay [1] (0.8 µM), 1.1; in assay [1] (2.53 µM), 0.492; in assay [1] (8 µM), 0.208; in the assay with Obatoclax (0.01 µM) it was 1.02; with Obatoclax (0.03162 µM), 0.765. Also, the relative viability with Obatoclax (0.3162 µM) worked out at 0.742; in the assay with Obatoclax (1 µM), 0.445.
